Assay results: US4409232A, “Substituted oxadiazoles, method for the production thereof, compositions containing them and method of use thereof” (priority 1980, dated 1983)
Entries after “also recorded” stand apart in the source; their conditions may differ.

Legend:
[1] = test system: β1 receptors of the heart versus β2 receptors (atrium / trachea); experiment: Cardioselectivity: antilog pA2 (atrium)-pA2 (trachea); format: cell-based, guinea pig; settings: for Cardioselectivity antilog pA2 (A)-pA2 (T): antilog of pA2 (atrium) - pA2 (trachea), guinea pig; for cardioselectivity (in words): qualitative statement
Excerpt: Most commercial β-adrenolytics of similar structure influence both β1 and β2 receptors; that is, they inhibit the effect of the sympathetic nervous system on the heart as well as on the peripheral blood vessels or the bronchial muscles. Blocking of the β2 receptors leads to an increase in tonus of the smooth muscle with broncho spasms and increased resistance of the peripheral vessels. […] This is because β2 receptor-blocking substances are not to be administered in bronchial diseases (such as asthma) because of their broncho-constrictive action. However, treatment of […].
(§1) pA2 The strength of a beta-adrenoceptor blocker. Corresponds to the negative logarithm of the molar concentration of an antagonist which requires a doubling of the molar concentration of the agonist to achieve a given effect on isolated tissue. As test tissue are used the atrium and trachea of guinea pigs.
Cardioselectivity: antilog pA2 (atrium)-pA2 (trachea)

[2] = target: T1, beta-adrenoceptor (trachea) (Cavia porcellus, UniProt Q8K4Z4); experiment: pA2 as beta-adrenoceptor blocker on isolated guinea pig trachea; format: cell-based
T1 construct: As test tissue are used the atrium and trachea of guinea pigs; from tissue; host or cells: isolated guinea pig trachea
Excerpt: as §1, with “The terms used in Table 1 are defined as follows (from B. J. Clark: "Pharmacology of beta-adrenoceptor blocking agents" in "beta-Adrenoceptor blocking agents", P. R. Saxena and R. P. Forsyth edition. pA2” for “pA2”

[3] = test system: beta-agonistic action (heart frequency); experiment: Intrinsic sympathomimetic activity (ISA): increase of heart frequency in reserpinized rats relative to isoprenaline; format: in vivo, rat; settings: for ISA % isoprenaline action: increase of heart frequency, reserpinized rats, isoprenaline maximum = 100%
Procedure: ISA: "Intrinsic sympathomimetic activity" (betaa -agonistic action). The percent increase of the heart frequency which is induced by a substance, referred to the maximum reaction of isoprenaline (100%). The measurements are carried out on reserpinolized rats which no longer show a sympathic tonus.

[4] = Local anesthetic action
[5] = target: T2, beta-adrenoceptor (atrium) (Cavia porcellus, UniProt H0W3H1); experiment: pA2 as beta-adrenoceptor blocker on isolated guinea pig atrium; format: cell-based
T2 construct: As test tissue are used the atrium and trachea of guinea pigs; from tissue; host or cells: isolated guinea pig atrium
Excerpt: as §1, with “The terms used in Table 1 are defined as follows (from B. J. Clark: "Pharmacology of beta-adrenoceptor blocking agents" in "beta-Adrenoceptor blocking agents", P. R. Saxena and R. P. Forsyth edition. pA2” for “pA2”

[6] = test system: beta-adrenolytic action; experiment: Half-life of the beta-adrenolytic action in rabbits after i.v. application; format: in vivo, rabbit; settings: for t1/2 of beta-adrenolytic action: rabbits, i.v., time at which action has decreased to one half
Excerpt: […] : Time at which the beta-adrenolytic action of a substance in rabbits after i.v. application has decreased to one half.

T2 sequence (H0W3H1 1-470): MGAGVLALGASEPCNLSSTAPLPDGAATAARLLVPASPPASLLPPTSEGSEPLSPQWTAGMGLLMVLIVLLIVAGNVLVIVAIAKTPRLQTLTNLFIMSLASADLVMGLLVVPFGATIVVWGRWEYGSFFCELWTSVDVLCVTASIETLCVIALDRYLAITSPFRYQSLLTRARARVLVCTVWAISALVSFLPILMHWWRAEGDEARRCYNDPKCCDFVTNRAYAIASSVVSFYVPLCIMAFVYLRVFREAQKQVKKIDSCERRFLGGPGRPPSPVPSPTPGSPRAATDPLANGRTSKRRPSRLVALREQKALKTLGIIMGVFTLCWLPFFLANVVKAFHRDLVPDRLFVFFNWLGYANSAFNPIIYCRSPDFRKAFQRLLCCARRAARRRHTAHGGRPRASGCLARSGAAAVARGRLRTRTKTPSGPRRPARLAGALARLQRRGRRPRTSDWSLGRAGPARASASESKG
T1 sequence (Q8K4Z4 whole entry): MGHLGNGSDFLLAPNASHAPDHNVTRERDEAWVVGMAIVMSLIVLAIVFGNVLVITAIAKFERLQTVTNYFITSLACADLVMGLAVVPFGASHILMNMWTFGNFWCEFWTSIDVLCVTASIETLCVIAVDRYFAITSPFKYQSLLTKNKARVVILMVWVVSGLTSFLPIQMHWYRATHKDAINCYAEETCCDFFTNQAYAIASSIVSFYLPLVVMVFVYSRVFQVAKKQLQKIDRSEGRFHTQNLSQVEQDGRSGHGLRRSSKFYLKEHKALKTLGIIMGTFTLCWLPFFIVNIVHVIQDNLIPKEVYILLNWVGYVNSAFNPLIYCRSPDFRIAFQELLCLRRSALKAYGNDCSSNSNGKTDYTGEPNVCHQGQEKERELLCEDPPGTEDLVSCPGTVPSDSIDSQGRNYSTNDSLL

cardioselectivity (in words) [1]	Kb [2] [µM]	Local anesth. action [4]	Kb [5] [µM]	agonistic / isoprenaline action (in words) ([3]; qualitative statement)	SMILES	Cardioselectivity antilog pA2 (A)-pA2 (T) [1]	ISA % isoprenaline action [3] [%]	cardioselectivity (in words) ([1]; listed as (c))	half-life (in words) ([6]; qualitative statement)	t1/2 of beta-adrenolytic action [6] [h]
preferred for their selectivity	1.26	0	0.0398	–	CCCCCCCC(=O)Nc1ccc(OCC(O)CNC(C)(C)C)c(-c2nnco2)c1 (centres unmarked) [Example 4, 2-[2-(2-hydroxy-3-tert.-butylamino-propoxy)-5-n-octanoylaminophenyl]-1,3,4 oxadiazole]	32	0	–	–	–
–	1.26	0	0.0501	–	CCCCCCC(=O)Nc1ccc(OCC(O)CNC(C)(C)C)c(-c2nnco2)c1 (centres unmarked) [Example 2, 2-[2-(2-hydroxy-3-tert.-butylamino-propoxy)-5-n-heptanoylaminophenyl]-1,3,4oxadiazole]	25	0	preferred for their selectivity; also recorded: highly selectively active	particularly long half-life	3.5
preferred for their selectivity	1.58	0	0.0794	–	CCCCCCCCCC(=O)Nc1ccc(OCC(O)CNC(C)(C)C)c(-c2nnco2)c1 (centres unmarked) [Example 6, 2-[2-(2-hydroxy-3-tert.-butylamino-propoxy)-5-n-decanoylamino-phenyl]-1,3,4oxadiazole]	20	0	–	–	–
preferred for their selectivity	–	–	–	–	CCCCCCCCC(=O)Nc1ccc(OCC(O)CNC(C)(C)C)c(-c2nnco2)c1 (centres unmarked) [Example 5, 2-[2-(2-hydroxy-3-tert.-butylamino-propoxy)-5-n-nonanoylaminophenyl]-1,3,4 oxadiazole]	–	–	–	–	–
–	0.158	0	0.0501	high isoprenaline action	CC(C)(C)NCC(O)COc1ccccc1-c1nnco1 (centres unmarked) [Comparison Substance 2, 2-[2-(2-hydroxy-3-tert.butylamino-propoxy)-phenyl]-1,3,4-oxadiazole, reference compound]	3	79	–	–	–
preferred for their selectivity	4.17	0	0.209	–	CC(=O)Nc1ccc(OCC(O)CNC(C)(C)C)c(-c2nnco2)c1 (centres unmarked) [Example 1, 2-[2-(2-hydroxy-3-tert.-butylamino-propoxy)-5-acetamido-phenyl]-1,3,4 oxadiazole]	17	0	–	–	5

SMILES	cardioselectivity (in words) [1]	Kb [2] [µM]	Local anesth. action [4]	Kb [5] [µM]	agonistic / isoprenaline action (in words) ([3]; qualitative statement)	Cardioselectivity antilog pA2 (A)-pA2 (T) [1]	ISA % isoprenaline action [3] [%]	cardioselectivity (in words) ([1]; listed as (c))	half-life (in words) ([6]; qualitative statement)	t1/2 of beta-adrenolytic action [6] [h]
CCCC(=O)Nc1ccc(OCC(O)CNC(C)C)c(C(C)=O)c1 (centres unmarked) [Comparison Substance 1, Acebutolol, reference compound]	–	9.77	present	–	–	–	27	–	–	1.6
